According to publication PMC12649549, “Sequence Permutation Generated Lysine and Tryptophan-Rich Antimicrobial Peptides with Enhanced Therapeutic Index” (Antibiotics, 2025):

Experiments:
HaCaT cells = experiment: Cell migration assay (in vitro wound healing assay); format: cell-based, human; details: 24 h
Method: Figure 3 Cell migration rate (In Vitro wound healing rate) of HaCaT cells induced by the designed peptides. […] (Bar: 200 μm) Results are presented as means ± standard deviations (SD); n = 3 (three independent experiments), ns = no significant differences; ** p < 0.01; *** p < 0.001; **** p < 0.0001 compared with PBS (Negative Control) and 100 ng/mL EGF (Positive Control).
For the Cell Migration Assay (in vitro wound healing assay), HaCaT cells (4 × 10^4 cells) were seeded on each side of an ibidi culture insert (ibidi, Germany) in DMEM medium supplemented with 10% fetal bovine serum. The inserts were placed into a 24-well plate and incubated at 37 °C and 5% CO2 overnight. After removing the inserts, 1 mL of serum-free DMEM medium supplemented with different concentrations of peptide was added. Medium without peptide and with 100 ng/mL EGF (epidermal growth factor) were used as negative and positive controls, respectively. The migration area was imaged at 0 and 24 h using an inverted fluorescent microscope (Zeiss/Observer Z1) at 10× magnification, and the area was quantified using ImageJ software(version 1.54g). The repairing rate was calculated using the formula: Repairing Rate = (Area0h-Area24h)/Area0h, where 0 h and 24 h represent the time points at which the images were taken.

[1] = Calcein dye leakage assay, POPC:LPS LUVs; details: POPC:LPS (12.5:1) LUVs, final peptide concentration 2 μg/mL; n = 3
Method: (§1) Large unilamellar vesicles (LUVs) containing POPC:LPS (12.5:1, mol/mol) and POPC:cholesterol (2:1, mol/mol) were prepared using the extrusion method and an Avanti small-volume extrusion apparatus(Avanti Polar Lipids). To prepare the vesicles, phospholipids were dissolved in a chloroform/methanol mixture (4:1, v/v), evaporated using nitrogen gas, and suspended in PBS buffer. The lipid suspensions underwent six to eight cycles of freezing and thawing before being extruded ten times through a […] pore size polycarbonate filter, followed by ten times through a […] filter. Calcein-filled LUVs were also prepared by loading calcein-containing buffer (70 mM calcein and 10 mM Tris at pH 7.4) into a Sephadex G-75 column loaded with iso-osmotic buffer (100 mM sodium chloride and 10 mM Tris) to remove unencapsulated calcein. The phospholipid content of the vesicles was determined by assessing inorganic phosphate using the ammonium ferrothiocyanate method described by John Charles Marshall Stewart.
(§2) Calcein leakage induced by peptides was measured using a Perkin-Elmer luminescence spectrofluorimeter with excitation and emission wavelengths of 496 and 515 nm, respectively. Calcein-entrapped LUVs were diluted to a concentration of 10 µM. The maximum degree of leakage was induced by 100 mg/mL Triton X-100.
(§3) The degree of leakage induced by various peptide concentrations was calculated using the formula: Leakage % = ((F − F0)/(Fr − F0)) × 100%, where F0 and Fr represent the initial fluorescence intensities observed without peptide and after adding 100 mg/mL Triton X-100, respectively.

[2] = tested on: human red blood cells (hRBCs); experiment: Hemolytic activity assay; format: cell-based; details: 1 h; for lysis of RBCs (hemolysis): 200 μM peptide, 100% = 1% Triton X-100
Method: Equal volumes of peptides and hRBCs were mixed and incubated at 37 °C for 1 h. The supernatant was collected from the samples and tested for absorbance at 565 nm. Zero hemolysis (blank) was defined in PBS buffer, while 100% hemolysis was defined in 1% Triton X-100.
Hemolytic activity was evaluated by testing the ability of the peptides to cause lysis of human red blood cells (hRBCs), both in the presence and absence of the antimicrobial peptide. Blood samples were collected from healthy volunteers and treated with ethylenediaminetetraacetic acid (EDTA) to prevent coagulation. The hRBCs were then washed three times with phosphate-buffered saline (PBS) and pelleted by centrifugation at 800× g for 10 min. Next, the hRBCs were diluted in PBS to a final concentration of 10%. Peptides were serially diluted in PBS ranging from 400 µM to 3.13 µM, and an equal volume of 10% hRBC was added to each dilution. After incubation at 37 °C for 1 h, the supernatant was collected by centrifugation at 800× g for 10 min, and the absorbance at 565 nm was measured. Negative controls (PBS blank) and positive controls (1% Triton X-100 in PBS) were also included. The percentage of hemolysis was calculated using the following formula: %hemolysis = [(Asample − APBS)/(ATritonX-100 − APBS)] × 100%, where A is the absorbance under the specified conditions.

[3] = Calcein dye leakage assay, POPC:Cholesterol LUVs; details: POPC:Cholesterol (2:1) LUVs, final peptide concentration 2 μg/mL; n = 3
Method: as §1, §2, §3

[4] = hRBCs in PBS, 37 °C, absorbance 565 nm
[5] = hRBCs in PBS, 37 °C, absorbance 565 nm, 108.7 µg/mL(200 µM) used when no detectable hemolytic activity

Row | Substance | wound healing effect (cell migration rate) (HaCaT cells; 4 µg/mL peptide) | calcein leakage [1] [%] | lysis of RBCs (hemolysis) [2, 4] | wound healing effect (cell migration rate) (HaCaT cells; serum-free DMEM, 0.25 µg/mL to 4 µg/mL, compared to the negative control) | HC10 (concentration that induced 10% hemolysis of human red blood cells) ([2]; phosphate buffer) [µg/mL] | calcein leakage [3] | HC10 (concentration that induced 10% hemolysis of human red blood cells) [2, 5] [µg/mL]
1 | Ac-AKKKKWRKWLKWL-NH2 [Peptide W5K10] | comparable wound healing effects | 81 | less than 10% | – | – | – | –
2 | Ac-KKKKWRKWLKWLA-NH2 [Peptide W5K11] | comparable wound healing effects | 85 | ~27% | superior wound healing effect even at the lowest concentration of 0.25 µg/mL | 71.0 | above 60% | –
3 | Ac-KKKWRKWLKWLAK-NH2 [Peptide W5K12] | – | 82 | ~30% | – | – | above 60% | 41.7
4 | Ac-KKWRKWLKWLAKK-NH2 [W5K/A9W] | comparable wound healing effects | 82 | approximately 35% | – | – | above 60% | 30.0
5 | Ac-KWRKWLKWLAKKK-NH2 [Peptide W5K01] | – | 74 | ~25% | – | – | above 60% | 70.9
6 | Ac-WLKWLAKKKKWRK-NH2 [Peptide W5K05] | – | 69 | – | – | – | – | –
7 | Ac-WRKWLKWLAKKKK-NH2 [Peptide W5K02] | – | 78 | ~34% | – | – | above 60% | 16.7
